Source: patent US9469633B2 (dated 2016)

`O=C1C[C@](c2cc(Cl)cc(Cl)c2)(C(F)(F)F)C(=O)N1` showed a melting point of 138 to 141 °C.
`O=C(/C=C(\c1cc(Cl)cc(Cl)c1)C(F)(F)F)c1ccco1` showed a melting point of 72 to 76 °C.
